According to PMC11440508, “Dually Labeled Neurotensin NTS1R Ligands for Probing Radiochemical and Fluorescence-Based Binding Assays” (Journal of Medicinal Chemistry, 2024):

Experiments:
[1] = Stability in human plasma/PBS 1:2 v/v; format: in vitro ADME; conditions: for % intact compound in plasma: 37 °C; for % intact compound in plasma / remaining at 24 h, 80 μM: 24 h
Description: The proteolytic stabilities of 13 and 18 were investigated in human blood plasma/PBS (136.9 mM NaCl, 2.68 mM KCl, 5.62 mM Na2HPO4, 1.09 mM NaH2PO4, and 1.47 mM KH2PO4, pH 7.4) 1:2 v/v according to a described procedure[38] with the following modifications: 5 mM stock solutions in EtOH/10 mM aqueous HCl 1:1 v/v were used for the addition of the peptides to plasma/PBS 1:2 v/v. As the RP-HPLC purity of 1-methyl-D-Trp, used as internal standard (IS), was <95%, the compound was purified by preparative HPLC to give a purity of >99%. The concentration of the peptides in plasma/PBS 1:2 v/v was 40 μM (recovery determination) or 80 μM (stability tests). Samples were analyzed using the same RP-HPLC system and conditions as described under Analytical HPLC with the following gradient: 0–6 min: acetonitrile/0.04% aqueous TFA 10:90–21:79, 6–12 min: 21:79–40:60, 12–13 min: 40:60–95:5, 13–16 min: 95:5 (isocratic). Data analysis was based on UV detection at 220 nm. Reference samples, representing 100% recovery, were prepared in quadruplicate. Recovery ratios were obtained by dividing the recovery of the peptide by the recovery of IS for each individual sample (n = 4). The obtained recoveries and the recovery ratios are summarized in Table S2, Supporting Information.

NTS1R = NTS1R (Homo sapiens, UniProt P30989); assay: High-content imaging (HCI) association and dissociation kinetics, adherent CHO-hNTS1R cells; format: binding; conditions: for koff: 23 °C, read-out: koff [min^–1] (converted); for kon: calculated from kobs, koff and ligand concentration, read-out: kon [min^–1 nM^–1] (converted)
Chain of NTS1R (P30989 whole entry): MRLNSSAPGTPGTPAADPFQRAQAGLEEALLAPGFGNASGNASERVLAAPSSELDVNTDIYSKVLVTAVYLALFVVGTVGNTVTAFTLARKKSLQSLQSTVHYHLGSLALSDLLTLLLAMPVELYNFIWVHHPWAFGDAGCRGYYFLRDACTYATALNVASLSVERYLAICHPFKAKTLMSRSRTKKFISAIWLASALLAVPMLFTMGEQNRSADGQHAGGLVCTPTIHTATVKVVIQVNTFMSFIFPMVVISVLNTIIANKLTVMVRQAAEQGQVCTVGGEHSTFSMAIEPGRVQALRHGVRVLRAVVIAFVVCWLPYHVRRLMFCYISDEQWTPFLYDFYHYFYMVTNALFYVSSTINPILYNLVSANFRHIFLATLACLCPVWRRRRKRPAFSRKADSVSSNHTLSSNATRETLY
Description: CHO-hNTS1R or HT-29 cells were seeded one day prior to the experiment into the inner 60 wells of a black clear-bottom 96-well plate (Greiner 655090, Greiner Bio-One) at a concentration of 25,000 cells/well and 35,000 cells/well, respectively. On the day of the assay, the medium was removed by suction and the cells were washed with DPBS1 (50 μL). After this step, DPBS1 (180 or 200 μL) containing the nuclear dye Hoechst H33342 (2 μg/mL) was added. This solution also contained the fluorescent ligand (kinetic studies, competition binding experiments), or the fluorescent ligand was added separately (saturation binding experiments). In the case of competition binding experiments, the nonlabeled receptor ligands were also added separately (details given below). All samples were incubated at 23 ± 1 °C in the dark under gentle shaking (incubation times are specified below). The final volume per well was 200 μL. Shortly before subjecting the plate to the plate reader for image acquisition, the liquid was removed by suction and DPBS1 (100 μL) was added. Images were acquired using an IX Micro plate reader (Molecular Devices, Sunnyvale, CA) using a 20× Plan Fluor ELWD objective, a xenon lamp light source and DAPI and TRITC excitation/emission filter cubes for imaging nuclear and fluorescent ligand staining, respectively. […] Two sites/well were measured throughout. Images were analyzed by granularity analysis (2–3 μm diameter granules; MetaXpress 5.3, Molecular Devices, San Diego, CA) and the integrated intensity (pixel intensity × granule area) per cell was used as the raw measurement of fluorescent ligand binding. […]
After the initial washing step, 200 μL of DPBS1 containing the fluorescent ligand 13 or 18 (2.5 nM) and DAPI were added to determine total binding. […] The samples of the different time points were prepared in reversed order (longest incubation time first, shortest incubation time last) so that the cells of all samples could be washed and measured approximately at the same time (note: the measurement time for 60 wells was <5 min). […] Specific binding data, obtained by subtracting triplicate mean values of unspecific binding from triplicate mean values of total binding, were plotted against the time and analyzed by a three-parameter equation describing an exponential rise to a maximum (one-phase association, Y0 constrained to zero, GraphPad Prism 5) to yield the observed association rate constant kobs. […]
After initial washing of the cells, 200 μL of DPBS1 containing the fluorescent ligand 13 or 18 (2.5 nM) and DAPI were added to the wells (determination of total binding). […] The plate was directly subjected to the plate reader (no washing step). […]

[2] = human blood plasma/PBS 1:2 v/v, pH 7.4, 37 °C, read-out: % intact compound in plasma

| SMILES | % intact compound in plasma [1] [%] | remaining at 0.5 h, 80 μM ([1]; human blood plasma/PBS 1:2 v/v, pH 7.4, 37 °C, 30 min, read-out: % intact compound in plasma) [%] | remaining at 2 h, 80 μM [1, 2] [%] | remaining at 6 h, 80 μM [1, 2] [%] | remaining at 24 h, 80 μM [1, 2] [%] | remaining at 48 h, 80 μM [1, 2] [%] | koff (NTS1R) [s⁻¹] | kon (NTS1R) [M⁻¹ s⁻¹] |
| --- | --- | --- | --- | --- | --- | --- | --- | --- |
| CCC(=O)NCCCCNC(=O)N=C(N)NCCC[C@H](NC(=O)[C@@H]1CCCN1C(=O)[C@@H](NC(=O)CCc1cn(CCCNC(=O)c2ccc(-c3c4ccc(=[N+](C)C)cc-4oc4cc(N(C)C)ccc34)c(C(=O)[O-])c2)nn1)C1CCNCC1)C(=O)N[C@@H](CCCNC(=N)N)C(=O)N1CCC[C@H]1C(=O)N[C@@H](Cc1ccc(O)cc1)C(=O)N[C@H](C(=O)N[C@@H](CC(C)C)C(=O)O)[C@@H](C)CC [Compound 13, N^α-(3-(1-N-((1-Carboxylato-2-(6-(dimethylamino)-3-(dimethyliminio)-3H-xanthen-9-yl)phen-5-yl)1-oxomethyl)aminoprop-3-yl-1H-1,2,3-triazol-4-yl)propanoyl)-2-(piperidin-4-yl)-Gly-Pro-N^ω-[(4-(N-propanoyl)aminobutyl)aminocarbonyl]Arg-Arg-Pro-Tyr-Ile-Leu Tris(hydrotrifluoroacetate)] | > 50 | > 99 | > 99 | > 99 | 86 ± 4 | 58 ± 5 | 0.000733 | 267000 |
| CCC(=O)NCCCCNC(=O)NC(=N)NCCC[C@H](NC(=O)[C@@H]1CCCN1C(=O)[C@@H](NC(=O)CCc1cn(CCCNC(=O)CCC#Cc2ccc3c(c2)C(C)(C)C2=C4C=C5C6=[N+](CCC5OC4CCN23)c2ccc(S(=O)(=O)[O-])cc2C6(C)C)nn1)C1CCNCC1)C(=O)N[C@@H](CCCNC(=N)N)C(=O)N1CCC[C@H]1C(=O)N[C@H](C(=O)N[C@H](C(=O)N[C@@H](CC(C)C)C(=O)O)[C@@H](C)CC)C(C)(C)c1ccc(O)cc1 (stereo partly drawn) [Compound 18, N^α-(3-(N-(1-(8-Sulfonato-5,5,27,27-tetramethyl-16-oxa-20-aza-12-azoniaheptacyclo[15.11.0.03,15.04,12.06,11.020,28.021,26]octacosa-1(28),2,4(12),6(11),7,9,21(26),22,24-nonaen-24-yl)-5-oxopentyn-5-yl)-1-aminoprop-3-yl-1H-1,2,3-triazol-4-yl)propanoyl)-2-(piperidin-4-yl)-Gly-Pro-N^ω-[(4-(N-propanoyl)aminobutyl)aminocarbonyl]Arg-Arg-Pro-β,β-dimethyl-L-Tyr-Ile-Leu Tris(hydrotrifluoroacetate)] | > 50 | – | 95 ± 6 | 90 ± 6 | 82 ± 4 | 52 ± 4 | 0.00085 | 135000 |
